Data reported in article PMC9516332 (Frontiers in Oncology, 2022).

Experiments:
Experiment in all cases: Kinase panel profiling at 1 µmol/L (MSA or IMAP), percentage inhibition
Type in all cases: biochemical
[1] = biological target: panel of 255 wild-type kinases (Homo sapiens, UniProt Q15418); details: kinase RSK1; 1 µmol/L single concentration; read-out: %-inhibition at 1 µmol/L, RSK1
[2] = biological target: panel of 255 wild-type kinases (Homo sapiens, UniProt Q9Y6M4); details: kinase CK1γ3; 1 µmol/L single concentration; read-out: %-inhibition at 1 µmol/L, CK1γ3
[3] = biological target: panel of 255 wild-type kinases (Homo sapiens, UniProt Q00535); details: CDK5/p25 kinase assay; 1 µmol/L single concentration; read-out: %-inhibition CDK5/p25
[4] = biological target: panel of 255 wild-type kinases (Homo sapiens, UniProt P07947); details: kinase YES; 1 µmol/L single concentration; read-out: %-inhibition at 1 µmol/L, YES
[5] = biological target: T1, panel of 255 wild-type kinases (Homo sapiens, UniProt P54753); details: kinase EPHB3; 1 µmol/L single concentration; read-out: %-inhibition at 1 µmol/L, EPHB3
T1 sequence (P54753 34-998): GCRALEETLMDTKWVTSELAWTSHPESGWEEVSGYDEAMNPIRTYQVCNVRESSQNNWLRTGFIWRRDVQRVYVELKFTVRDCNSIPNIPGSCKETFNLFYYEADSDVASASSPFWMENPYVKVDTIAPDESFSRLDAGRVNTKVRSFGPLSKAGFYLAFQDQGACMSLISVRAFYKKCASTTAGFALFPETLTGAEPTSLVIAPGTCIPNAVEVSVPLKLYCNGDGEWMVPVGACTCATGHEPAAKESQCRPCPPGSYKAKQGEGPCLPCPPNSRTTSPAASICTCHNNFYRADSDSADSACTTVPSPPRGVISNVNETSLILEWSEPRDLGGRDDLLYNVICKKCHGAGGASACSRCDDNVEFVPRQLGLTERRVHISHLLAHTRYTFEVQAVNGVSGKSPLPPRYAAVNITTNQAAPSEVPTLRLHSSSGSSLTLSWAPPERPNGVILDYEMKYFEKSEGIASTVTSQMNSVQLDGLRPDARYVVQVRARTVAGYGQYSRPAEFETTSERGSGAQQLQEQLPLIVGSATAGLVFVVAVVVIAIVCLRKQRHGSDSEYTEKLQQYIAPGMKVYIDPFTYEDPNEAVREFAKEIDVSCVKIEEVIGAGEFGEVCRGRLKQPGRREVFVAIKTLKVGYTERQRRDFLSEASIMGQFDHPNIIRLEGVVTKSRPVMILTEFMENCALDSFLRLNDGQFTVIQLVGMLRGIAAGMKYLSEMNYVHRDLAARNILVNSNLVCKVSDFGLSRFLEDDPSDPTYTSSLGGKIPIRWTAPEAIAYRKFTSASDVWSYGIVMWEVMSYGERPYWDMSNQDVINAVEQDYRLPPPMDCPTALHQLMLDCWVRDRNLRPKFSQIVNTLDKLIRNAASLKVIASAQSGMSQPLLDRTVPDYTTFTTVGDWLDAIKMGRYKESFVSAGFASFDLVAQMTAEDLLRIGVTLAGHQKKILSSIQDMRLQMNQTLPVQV

[6] = biological target: T2, panel of 255 wild-type kinases (Homo sapiens, UniProt P53778); details: p38γ; 1 µmol/L single concentration; read-out: %-inhibition, p38γ
T2 sequence (P53778 1-367): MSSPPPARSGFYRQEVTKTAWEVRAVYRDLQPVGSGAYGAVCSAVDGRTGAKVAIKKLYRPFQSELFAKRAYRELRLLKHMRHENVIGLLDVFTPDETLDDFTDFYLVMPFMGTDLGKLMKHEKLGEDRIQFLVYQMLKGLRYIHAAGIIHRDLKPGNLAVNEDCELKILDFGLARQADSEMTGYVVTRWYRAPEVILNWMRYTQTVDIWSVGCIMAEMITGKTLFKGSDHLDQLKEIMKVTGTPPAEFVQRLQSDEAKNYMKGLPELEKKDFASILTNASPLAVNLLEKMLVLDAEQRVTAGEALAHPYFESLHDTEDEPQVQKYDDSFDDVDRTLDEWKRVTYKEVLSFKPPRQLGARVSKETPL

[7] = biological target: panel of 255 wild-type kinases (Homo sapiens, UniProt P51812); details: kinase RSK2; 1 µmol/L single concentration; read-out: %-inhibition at 1 µmol/L, RSK2
[8] = biological target: panel of 255 wild-type kinases (Homo sapiens, UniProt Q13882); details: BRK kinase assay; 1 µmol/L single concentration; read-out: %-inhibition BRK
[9] = biological target: panel of 255 wild-type kinases (Homo sapiens, UniProt P17612); details: kinase PKACα; 1 µmol/L single concentration; read-out: %-inhibition at 1 µmol/L, PKACα

Q: Which results are given for COc1ccc(CN2C3CC2CN(c2ccc(-c4cc(OCC(C)(C)O)cn5ncc(C#N)c45)cn2)C3)cn1 [selpercatinib]?
A: inhibition at 1 µM [1]: 51%; inhibition at 1 µM [2]: 12%; inhibition at 1 µM [3]: -8.52%; inhibition at 1 µM [4]: 84%; inhibition at 1 µM [5]: -0.598%; inhibition at 1 µM [6]: 0.277%; inhibition at 1 µM [7]: 47%; inhibition at 1 µM [8]: 19%; inhibition at 1 µM [9]: -5%

Q: How did the inhibition at 1 µM [1] turn out when Cn1cnc2c(F)c(Nc3ccc(Br)cc3Cl)c(C(=O)NOCCO)cc21 [selumetinib] was run?
A: Its inhibition at 1 µM is -8%.

Q: What about the inhibition at 1 µM [2] of the same compound?
A: The inhibition at 1 µM was -1%.

Q: And the inhibition at 1 µM [3]?
A: Its inhibition at 1 µM is -11%.

Q: What about the inhibition at 1 µM [4] of the same compound?
A: Its inhibition at 1 µM is 14%.

Q: What about the inhibition at 1 µM [5] of the same compound?
A: Its inhibition at 1 µM is -3%.

Q: And the inhibition at 1 µM [6]?
A: Its inhibition at 1 µM is -1.75%.

Q: What about the inhibition at 1 µM [7] of the same compound?
A: Its inhibition at 1 µM is -1.52%.

Q: And the inhibition at 1 µM [8]?
A: Its inhibition at 1 µM is 6%.

Q: And the inhibition at 1 µM [9]?
A: Its inhibition at 1 µM is -28%.

Q: Cc1cc(Nc2ncnc3ccc(NC4=NC(C)(C)CO4)cc23)ccc1Oc1ccn2ncnc2c1 [tucatinib] was tested. Which inhibition at 1 µM [1] did it give?
A: Its inhibition at 1 µM is -4.66%.

Q: And the inhibition at 1 µM [2]?
A: Its inhibition at 1 µM is 11%.

Q: And the inhibition at 1 µM [3]?
A: The inhibition at 1 µM was -5%.

Q: And the inhibition at 1 µM [4]?
A: The inhibition at 1 µM was 3.64%.

Q: What about the inhibition at 1 µM [5] of the same compound?
A: Its inhibition at 1 µM is -5.68%.

Q: And the inhibition at 1 µM [6]?
A: Its inhibition at 1 µM is -1.75%.

Q: What about the inhibition at 1 µM [7] of the same compound?
A: The inhibition at 1 µM was -3%.

Q: What about the inhibition at 1 µM [8] of the same compound?
A: The inhibition at 1 µM was 8%.

Q: And the inhibition at 1 µM [9]?
A: Its inhibition at 1 µM is -20%.
